Assay results as given in paper PMC4741274 (Neurochemical research, 2015).
Several values for one entry are separate records, joined by “and”; a condition that tells them apart may be missing. Identical values can stand only once. Entries after “also recorded” stand apart in the source; their conditions may differ. Like-named read-outs stand apart in the source and are kept apart here.

How the values were obtained:
[1] = tested on: Human α4β2 nAChRs expressed in K177 cells; details: 86Rb+ efflux, ref [22]; cited from earlier work
[2] = tested on: IMR-32 cells (ganglionic-like α3β4 nAChRs); details: 86Rb+ efflux, ref [22]; cited from earlier work
[3] = biological target: T1, α3β4 nAChR (Rattus norvegicus, UniProt P04757+P12392); test: Competition binding vs 500 pM [3H]EB, stably transfected HEK cells; details: for Selectivity ratio α3β4/α7: ratio of Ki in stably transfected cells
[4] = biological target: rat α3β4 nAChRs (Rattus norvegicus, UniProt P04757+P12392); test: cell-based; type: cell-based; details: for Agonist activity (in words): α3β4 nAChRs, 86Rb+ efflux
[5] = biological target: α2β2 nAChR (Rattus norvegicus, UniProt P12389+P12390); test: Competition binding vs 500 pM [3H]EB, stably transfected HEK cells
[6] = biological target: α3β2 nAChR (Rattus norvegicus, UniProt P04757+P12390); test: as above
[7] = tested on: α4β2* nAChRs from rat forebrain tissue (FB); test: biochemical; type: binding; details: Ki α3β4 transfected cells vs rat forebrain (FB) α4β2
[8] = biological target: α4β2* nAChRs from rat forebrain tissue (FB) (Rattus norvegicus, UniProt P09483+P12390); test: biochemical; type: binding
[9] = biological target: α4β4 nAChR (Rattus norvegicus, UniProt P09483+P12392); test: Competition binding vs 500 pM [3H]EB, stably transfected HEK cells
[10] = biological target: T2, α4β2 nAChR (Rattus norvegicus, UniProt P09483+P12390); type: binding; details: for Ki: read-out: Ki α4β2, vs 500pM [3H]EB, HEK cells, Mean ± SEM of three
[11] = biological target: T3, α7 nAChR (Rattus norvegicus, UniProt Q05941); test: Competition binding vs 500 pM [3H]EB, stably transfected HEK cells
[12] = biological target: T4, α2β4 nAChR (Rattus norvegicus, UniProt P12389+P12392); test: as above
[13] = biological target: T2, α4β2 nAChR; details: added only for comparison; ref [24]; cited from earlier work
[14] = biological target: T3, α7 nAChR; details: read-out: Ki α7; added for comparison; ref [24]; cited from earlier work
[15] = biological target: T1, α3β4 nAChR; details: cited from earlier work
[16] = biological target: T4, α2β4 nAChR; details: read-out: Ki α2β4; added for comparison; ref [24]; cited from earlier work
[17] = tested on: α4β2* nAChRs from rat forebrain tissue (FB); details: cited from earlier work
[18] = biological target: nAChRs (Rattus norvegicus, UniProt P09483+P12390); type: binding; details: read-out: Ki AVG
[19] = ratio of Ki in stably transfected cells
[20] = read-out: Ki α3β4, vs 500pM [3H]EB, HEK cells, Mean ± SEM of three
[21] = read-out: Ki α2β2, vs 500pM [3H]EB, HEK cells, Mean ± SEM of three
[22] = read-out: Ki α3β2, vs 500pM [3H]EB, HEK cells, Mean ± SEM of three
[23] = read-out: Ki α4β4, vs 500pM [3H]EB, HEK cells, Mean ± SEM of three
[24] = read-out: Ki α7, vs 500pM [3H]EB, HEK cells, Mean ± SEM of three
[25] = read-out: Ki α2β4, vs 500pM [3H]EB, HEK cells, Mean ± SEM of three

Row | Compound | Agonist/antagonist function (in words) [1] | EC50 [1] [nM] | Agonist/antagonist function (in words) [2] | Selectivity ratio α3β4/α7 [3] | EC50 [4] [nM] | Agonist activity (in words) [4] | Selectivity ratio α3β4/α4β2*FB [7] | Selectivity ratio α3β4/α4β2 [10, 19] | Ki [3, 20] [nM] | Ki [5, 21] [nM] | Ki [6, 22] [nM] | Ki [9, 23] [nM] | Ki [10] [nM] | Ki [18] [nM] | Ki [11, 24] [nM] | Ki [12, 25] [nM] | other results
1 | CN1CCC[C@H]1COc1cccnc1 [A-84543, 3-(1-methyl-2(S)-pyrrolidinylmethoxy)pyridine, reference compound] | full agonists | 750 | full agonists | 5.58 | 160000 ± 40000 | partial agonist with low potency | 351.9 | 1,357 | – | – | – | – | – | – | – | – | Ki [3]: 1900 nM; Emax ([4]; HEK293, read-out: Relative Emax): 37.5 ± 6%; Ki [5]: 2 ± 0.3 nM; Ki [6]: 12 ± 1 nM; Ki [8]: 5.4 ± 0.6 nM; Ki [9]: 150 ± 10 nM; Selectivity ratio α7/α4β2 [10, 19]: 242; Ki [11]: 340 ± 50 nM; Ki [12]: 370 ± 40 nM
2 | c1cncc(OC[C@@H]2CCN2)c1 [A-85380, 3-(2(S)-azetidinylmethoxy) pyridine] | – | – | – | – | – | – | – | – | – | – | – | – | – | – | – | – | Selectivity ratio α3β4/α4β2 [13]: 557.14; Selectivity ratio α7/α4β2 [13]: 3,000; Ki [14]: 420 ± 50 nM; Selectivity ratio α3β4/α7 [15]: 0.18; Ki [16]: 18 ± 4 nM; Selectivity ratio α3β4/α4β2*FB [17]: 312
3 | c1cncc(OC[C@@H]2CCCN2)c1 [H-11MNH] | full agonists | 4000 | full agonists | 3.23 | 24000 ± 1000 | full agonist with high potency; also recorded: full agonist with high efficacy | 295.8 | 538.5 | 210 ± 40 | 0.35 ± 0.09 | 1.3 ± 0.3 | 31 ± 6 | 0.39 ± 0.05 | 0.46 | 65 ± 5 | 76 ± 12 | Relative Emax [4]: 83.33% and 83.3 ± 3%; Selectivity ratio α3β4/α4β2*FB ([7]; listed as H-11NMH): ~ 300
4 | c1ccc(OCC2CCCN2)nc1 (centres unmarked) [H-11ONH] | – | – | – | – | – | – | – | – | > 10000 | > 10000 | > 10000 | > 10000 | > 10000 | 21800 | > 10000 | > 10000 | –
5 | CN1CCCC1COc1ccccn1 (centres unmarked) [H-11ONM] | – | – | – | – | – | – | – | – | > 10000 | > 10000 | > 10000 | > 10000 | > 10000 | 60300 | > 10000 | > 10000 | –
6 | c1cc(OC[C@@H]2CCCN2)ccn1 [H-11PNH] | – | – | – | – | – | – | – | – | > 10000 | > 10000 | > 10000 | > 10000 | > 10000 | 59200 | > 10000 | > 10000 | –
